Test results published in publication PMC5218480 (PLoS ONE, 2017).

Test system: MV-4-11 cells
Experiment: Gene expression microarray analysis (Affymetrix PrimeView) and GSEA
Type: cell-based, human
Design: RFU PODN (11730768_x_at) / Fold change /veh PODN (11730768_x_at) / RFU LINC00158 (11744669_a_at) / Fold change /veh LINC00158 (11744669_a_at) / RFU DUSP10 (11751237_a_at) / Fold change /veh DUSP10 (11751237_a_at) / RFU ID3 (11757404_x_at) / Fold change /veh ID3 (11757404_x_at) / RFU PLEKHG5 (11737974_s_at) / Fold change /veh PLEKHG5 (11737974_s_at) / RFU LRRC4B (11730491_at) / Fold change /veh LRRC4B (11730491_at) / RFU GIMAP4 (11747438_a_at) / Fold change /veh GIMAP4 (11747438_a_at) / RFU KRT8 (11758183_x_at) / Fold change /veh KRT8 (11758183_x_at) / RFU CNN1 (11734310_a_at) / Fold change /veh CNN1 (11734310_a_at) / RFU VPS37D (11726825_at) / Fold change /veh VPS37D (11726825_at) / RFU C10orf10 (11716522_x_at) / Fold change /veh C10orf10 (11716522_x_at) / RFU KIR2DL2 /// KIR2DL4 /// KIR2DL5A /// KIR2DL5B /// KIR2DS1 /// KIR2DS2 /// KIR2DS3 /// KIR2DS4 /// KIR3DL3 /// KIR3DL3 /// KIR3DS1 (11738374_at) / Fold change /veh KIR2DL2 /// KIR2DL4 /// KIR2DL5A /// KIR2DL5B /// KIR2DS1 /// KIR2DS2 /// KIR2DS3 /// KIR2DS4 /// KIR3DL3 /// KIR3DL3 /// KIR3DS1 (11738374_at) / RFU C1QL1 (11718748_at) / Fold change /veh C1QL1 (11718748_at) / RFU TMPRSS4 (11747572_a_at) / Fold change /veh TMPRSS4 (11747572_a_at) / RFU HAMP (11756126_x_at) / Fold change /veh HAMP (11756126_x_at) / RFU RNFT2 (11725882_a_at) / Fold change /veh RNFT2 (11725882_a_at) / RFU NR4A2 (11747474_a_at) / Fold change /veh NR4A2 (11747474_a_at) / RFU ABCC12 (11746883_a_at) / Fold change /veh ABCC12 (11746883_a_at) / RFU TMEM136 (11760407_x_at) / Fold change /veh TMEM136 (11760407_x_at) / RFU CLDN22 /// WWC2 (11732394_at) / Fold change /veh CLDN22 /// WWC2 (11732394_at) / RFU HLA-DPB1 (11760878_x_at) / Fold change /veh HLA-DPB1 (11760878_x_at) / RFU SPINT1 (11716480_a_at) / Fold change /veh SPINT1 (11716480_a_at) / RFU GAP43 (11754022_s_at) / Fold change /veh GAP43 (11754022_s_at) / RFU A4GNT (11735810_at) / Fold change /veh A4GNT (11735810_at) / RFU PRB3 (11715151_x_at) / Fold change /veh PRB3 (11715151_x_at) / RFU TUBB4B (11761932_at) / Fold change /veh TUBB4B (11761932_at) / RFU CAPN14 (11732068_a_at) / Fold change /veh CAPN14 (11732068_a_at) / RFU TMCC2 (11721928_a_at) / Fold change /veh TMCC2 (11721928_a_at) / RFU IRGQ (11745062_a_at) / Fold change /veh IRGQ (11745062_a_at) / RFU FAM174B (11720279_a_at) / Fold change /veh FAM174B (11720279_a_at) / RFU TMPRSS4 (11748680_a_at) / Fold change /veh TMPRSS4 (11748680_a_at) / RFU FAM212B (11763350_a_at) / Fold change /veh FAM212B (11763350_a_at) / RFU PLEKHG5 (11743358_a_at) / Fold change /veh PLEKHG5 (11743358_a_at) / RFU ZSCAN30 (11745921_a_at) / Fold change /veh ZSCAN30 (11745921_a_at) / RFU CMKLR1 (11741424_a_at) / Fold change /veh CMKLR1 (11741424_a_at) / RFU LOC101060620 /// MAPK8IP1 (11723275_at) / Fold change /veh LOC101060620 /// MAPK8IP1 (11723275_at) / RFU SPTSSB (11747773_x_at) / Fold change /veh SPTSSB (11747773_x_at) / RFU PRSS12 (11739890_at) / Fold change /veh PRSS12 (11739890_at) / RFU BIN1 (11741810_x_at) / Fold change /veh BIN1 (11741810_x_at) / RFU WNT11 (11732464_a_at) / Fold change /veh WNT11 (11732464_a_at) / RFU C10orf10 (11716521_a_at) / Fold change /veh C10orf10 (11716521_a_at) / RFU C5orf56 (11738089_at) / Fold change /veh C5orf56 (11738089_at) / RFU CYB561 (11721691_x_at) / Fold change /veh CYB561 (11721691_x_at) / RFU ANKRD19P (11752326_a_at) / Fold change /veh ANKRD19P (11752326_a_at) / RFU OR2T12 /// OR2T33 /// OR2T8 (11738714_s_at) / Fold change /veh OR2T12 /// OR2T33 /// OR2T8 (11738714_s_at) / RFU VCAN (11748164_a_at) / Fold change /veh VCAN (11748164_a_at) / RFU JSRP1 (11732532_at) / Fold change /veh JSRP1 (11732532_at) / RFU KRTAP10-11 (11738290_x_at) / Fold change /veh KRTAP10-11 (11738290_x_at) / RFU MYO3A (11730013_a_at) / Fold change /veh MYO3A (11730013_a_at) / RFU EBF3 (11725865_a_at) / Fold change /veh EBF3 (11725865_a_at) / RFU CAMK2N1 (11719241_x_at) / Fold change /veh CAMK2N1 (11719241_x_at) / RFU C5orf56 (11738088_a_at) / Fold change /veh C5orf56 (11738088_a_at) / RFU OLFML3 (11715873_a_at) / Fold change /veh OLFML3 (11715873_a_at) / RFU LOC100653217 /// NTM (11731650_a_at) / Fold change /veh LOC100653217 /// NTM (11731650_a_at) / RFU MAPK11 (11762145_a_at) / Fold change /veh MAPK11 (11762145_a_at) / RFU FIZ1 (11724087_x_at) / Fold change /veh FIZ1 (11724087_x_at) / RFU OASL (11726364_x_at) / Fold change /veh OASL (11726364_x_at) / RFU SOX15 (11748057_x_at) / Fold change /veh SOX15 (11748057_x_at) / RFU CD79A (11719716_a_at) / Fold change /veh CD79A (11719716_a_at) / RFU HIST1H1D (11736915_at) / Fold change /veh HIST1H1D (11736915_at) / RFU CASKIN2 (11723855_a_at) / Fold change /veh CASKIN2 (11723855_a_at) / RFU LOC730098 (11760151_x_at) / Fold change /veh LOC730098 (11760151_x_at) / RFU OR4N2 (11742367_at) / Fold change /veh OR4N2 (11742367_at) / RFU PRRT2 (11749266_a_at) / Fold change /veh PRRT2 (11749266_a_at) / RFU SNX32 (11753110_a_at) / Fold change /veh SNX32 (11753110_a_at) / RFU CDHR5 (11726645_a_at) / Fold change /veh CDHR5 (11726645_a_at) / RFU RCAN1 (11760418_a_at) / Fold change /veh RCAN1 (11760418_a_at) / RFU FAM167A (11723789_a_at) / Fold change /veh FAM167A (11723789_a_at) / RFU FAM26E (11764081_at) / Fold change /veh FAM26E (11764081_at) / RFU ISYNA1 (11749810_s_at) / Fold change /veh ISYNA1 (11749810_s_at) / RFU ACY1 (11761880_at) / Fold change /veh ACY1 (11761880_at) / RFU 11764098_at / Fold change /veh 11764098_at / RFU SAMD14 (11745864_x_at) / Fold change /veh SAMD14 (11745864_x_at) / RFU NPB (11741838_a_at) / Fold change /veh NPB (11741838_a_at) / RFU TMPRSS6 (11731388_a_at) / Fold change /veh TMPRSS6 (11731388_a_at) / RFU KRTAP10-2 (11738614_at) / Fold change /veh KRTAP10-2 (11738614_at) / RFU ARHGAP8 /// PRR5-ARHGAP8 (11727945_x_at) / Fold change /veh ARHGAP8 /// PRR5-ARHGAP8 (11727945_x_at) / RFU KRTAP5-7 /// NADSYN1 (11734609_at) / Fold change /veh KRTAP5-7 /// NADSYN1 (11734609_at) / RFU RASL12 (11751679_a_at) / Fold change /veh RASL12 (11751679_a_at) / RFU CDKN2B (11736163_a_at) / Fold change /veh CDKN2B (11736163_a_at) / RFU PRF1 (11729649_at) / Fold change /veh PRF1 (11729649_at) / RFU, ZNF638 /// ZNF638-IT1 / Fold change vs veh, ZNF638 /// ZNF638-IT1 / RFU, PANK3 / Fold change vs veh, PANK3 / RFU, SH3YL1 / Fold change vs veh, SH3YL1 / RFU, ZEB2 / Fold change vs veh, ZEB2 / RFU, NRIP1 / Fold change vs veh, NRIP1 / RFU, PTTG1IP / Fold change vs veh, PTTG1IP / RFU, CAPN2 / Fold change vs veh, CAPN2 / RFU, MED14 / Fold change vs veh, MED14 / RFU, SNORA58 / Fold change vs veh, SNORA58 / RFU, C1orf63 / Fold change vs veh, C1orf63 / RFU, LRRFIP1 / Fold change vs veh, LRRFIP1 / RFU, NDUFAF7 / Fold change vs veh, NDUFAF7 / RFU, SLC12A2 / Fold change vs veh, SLC12A2 / RFU, IBTK / Fold change vs veh, IBTK / RFU, ESF1 / Fold change vs veh, ESF1 / Fold change vs veh, TMEM50B / RFU, TAOK1 / Fold change vs veh, TAOK1 / RFU, ACBD3 / Fold change vs veh, ACBD3 / RFU, TMA16 / Fold change vs veh, TMA16 / RFU, RWDD3 / Fold change vs veh, RWDD3 / RFU, BCAT1 / Fold change vs veh, BCAT1 / RFU, EDEM3 / Fold change vs veh, EDEM3 / RFU, TMEM33 / Fold change vs veh, TMEM33 / RFU, WDR75 / Fold change vs veh, WDR75 / RFU, AHCTF1 / Fold change vs veh, AHCTF1 / RFU, TFRC / Fold change vs veh, TFRC / RFU, ZDHHC17 / Fold change vs veh, ZDHHC17 / RFU, NOM1 / Fold change vs veh, NOM1 / RFU, ARL8B / Fold change vs veh, ARL8B / RFU, ZBTB11 / Fold change vs veh, ZBTB11 / RFU, TAMM41 / Fold change vs veh, TAMM41 / RFU, KIAA1704 /// LOC100996395 / Fold change vs veh, KIAA1704 /// LOC100996395 / RFU, ING1 / Fold change vs veh, ING1 / RFU, TRMT61B / Fold change vs veh, TRMT61B / RFU, FUBP3 / Fold change vs veh, FUBP3 / RFU, TP53 / Fold change vs veh, TP53 / RFU, TNKS2 / Fold change vs veh, TNKS2 / RFU, ZFP14 / Fold change vs veh, ZFP14 / RFU, ACTR2 / Fold change vs veh, ACTR2 / RFU, PPP3R1 / Fold change vs veh, PPP3R1 / RFU, PIK3R1 / Fold change vs veh, PIK3R1 / RFU, HNRNPA1 / Fold change vs veh, HNRNPA1 / RFU, RNF170 / Fold change vs veh, RNF170 / RFU, ZNF28 / Fold change vs veh, ZNF28 / RFU, RNGTT / Fold change vs veh, RNGTT / RFU, OGT / Fold change vs veh, OGT / RFU, BRD1 / Fold change vs veh, BRD1 / RFU, MARS / Fold change vs veh, MARS / RFU, ZNF655 / Fold change vs veh, ZNF655 / RFU, FAHD1 / Fold change vs veh, FAHD1 / RFU, BDP1 / Fold change vs veh, BDP1 / RFU, LRRCC1 / Fold change vs veh, LRRCC1 / RFU, ARID1A / Fold change vs veh, ARID1A / RFU, ZNF146 / Fold change vs veh, ZNF146 / RFU, ZNF330 / Fold change vs veh, ZNF330 / RFU, GPN3 / Fold change vs veh, GPN3 / RFU, C9orf123 / Fold change vs veh, C9orf123 / RFU, N4BP2L2 / Fold change vs veh, N4BP2L2 / RFU, ARFIP1 / Fold change vs veh, ARFIP1 / RFU, FAM179B / Fold change vs veh, FAM179B / RFU, BCL10 / Fold change vs veh, BCL10 / RFU, UHRF1BP1L / Fold change vs veh, UHRF1BP1L / RFU, BET1 / Fold change vs veh, BET1 / RFU, CNOT2 / Fold change vs veh, CNOT2 / RFU, ZNF268 / Fold change vs veh, ZNF268 / Fold change vs veh, ZNF507 / RFU, DGCR2 / Fold change vs veh, DGCR2 / RFU, WDSUB1 / Fold change vs veh, WDSUB1 / Fold change vs veh, HSP90B1 /// MIR3652 / RFU, ADSS / Fold change vs veh, ADSS / RFU, GK / Fold change vs veh, GK / RFU, ZNF148 / Fold change vs veh, ZNF148 / RFU, TAF9 / Fold change vs veh, TAF9 / RFU, SLC1A5 / Fold change vs veh, SLC1A5 / RFU, SLMO2 / Fold change vs veh, SLMO2 / RFU, ABCC4 / Fold change vs veh, ABCC4 / RFU, LOC101060439 /// RAP1B / Fold change vs veh, LOC101060439 /// RAP1B / RFU, RFX7 / Fold change vs veh, RFX7 / RFU, GTPBP10 / Fold change vs veh, GTPBP10 / RFU, CNEP1R1 / Fold change vs veh, CNEP1R1 / RFU, BIVM-ERCC5 /// ERCC5 / Fold change vs veh, BIVM-ERCC5 /// ERCC5 / RFU, ILF3 / Fold change vs veh, ILF3 / RFU 11762660_at / Fold change /veh 11762660_at / RFU VCAN (11757783_s_at) / Fold change /veh VCAN (11757783_s_at) / RFU DDX43 (11728927_at) / Fold change /veh DDX43 (11728927_at) / RFU KRT8 (11758188_x_at) / Fold change /veh KRT8 (11758188_x_at) / RFU NKD1 (11759106_at) / Fold change /veh NKD1 (11759106_at) / RFU SRD5A1 (11742802_a_at) / Fold change /veh SRD5A1 (11742802_a_at) / RFU TPSAB1 /// TPSB2 (11721975_s_at) / Fold change /veh TPSAB1 /// TPSB2 (11721975_s_at) / RFU GSTM3 (11746129_a_at) / Fold change /veh GSTM3 (11746129_a_at) / RFU IL23R (11737362_x_at) / Fold change /veh IL23R (11737362_x_at) / RFU TMEM51 (11727254_a_at) / Fold change /veh TMEM51 (11727254_a_at) / RFU PIWIL2 (11732686_x_at) / Fold change /veh PIWIL2 (11732686_x_at) / RFU ORM1 (11744905_x_at) / Fold change /veh ORM1 (11744905_x_at) / RFU CCDC152 (11743942_at) / Fold change /veh CCDC152 (11743942_at) / RFU ECM1 (11717891_a_at) / Fold change /veh ECM1 (11717891_a_at) / RFU IL23R (11748794_a_at) / Fold change /veh IL23R (11748794_a_at) / RFU TNFAIP8L3 (11732012_x_at) / Fold change /veh TNFAIP8L3 (11732012_x_at) / RFU MBOAT4 (11741988_at) / Fold change /veh MBOAT4 (11741988_at) / RFU 11764193_at / Fold change /veh 11764193_at / RFU TMEM53 (11763286_at) / Fold change /veh TMEM53 (11763286_at) / RFU MAGEB2 (11727129_at) / Fold change /veh MAGEB2 (11727129_at) / RFU TMEM200A (11744735_a_at) / Fold change /veh TMEM200A (11744735_a_at) / RFU CCDC152 (11751479_a_at) / Fold change /veh CCDC152 (11751479_a_at) / RFU FAM211A (11726209_a_at) / Fold change /veh FAM211A (11726209_a_at) / RFU RGS16 (11746705_a_at) / Fold change /veh RGS16 (11746705_a_at) / RFU VCAN (11755009_s_at) / Fold change /veh VCAN (11755009_s_at) / RFU RHOB (11743442_s_at) / Fold change /veh RHOB (11743442_s_at) / RFU RGS16 (11720943_a_at) / Fold change /veh RGS16 (11720943_a_at) / RFU RGS16 (11720944_at) / Fold change /veh RGS16 (11720944_at) / RFU, VPS4B / Fold change vs veh, VPS4B / RFU, CREB1 / Fold change vs veh, CREB1 / RFU, DNAJC13 / Fold change vs veh, DNAJC13 / RFU, GNAQ / Fold change vs veh, GNAQ / RFU, CDK5R1 / Fold change vs veh, CDK5R1 / RFU, ZRANB3 / Fold change vs veh, ZRANB3 / RFU, CUL4A / Fold change vs veh, CUL4A / RFU, CCNY / Fold change vs veh, CCNY / RFU, UFL1 / Fold change vs veh, UFL1 / RFU, COG3 / Fold change vs veh, COG3 / RFU, DIAPH2 / Fold change vs veh, DIAPH2 / RFU, SKA2 / Fold change vs veh, SKA2 / RFU, AFF3 / Fold change vs veh, AFF3 / RFU, LMF1 / Fold change vs veh, LMF1 / RFU, IPO11 / Fold change vs veh, IPO11 / RFU, DFFB / Fold change vs veh, DFFB / RFU, FOXP1 / Fold change vs veh, FOXP1 / RFU, CARD8 / Fold change vs veh, CARD8 / RFU, STRN3 / Fold change vs veh, STRN3 / RFU, ADK / Fold change vs veh, ADK / RFU, RASSF2 / Fold change vs veh, RASSF2 / RFU, WIPF1 / Fold change vs veh, WIPF1 / RFU, LARP1B / Fold change vs veh, LARP1B / RFU, RASA1 / Fold change vs veh, RASA1 / RFU, RB1 / Fold change vs veh, RB1 / RFU, PPFIA1 / Fold change vs veh, PPFIA1 / RFU, MAT2A / Fold change vs veh, MAT2A / RFU, CCT5 / Fold change vs veh, CCT5 / RFU, WDR92 / Fold change vs veh, WDR92 / RFU, CUX1 / Fold change vs veh, CUX1 / RFU, TTC7A / Fold change vs veh, TTC7A / RFU, TMEM135 / Fold change vs veh, TMEM135 / RFU, DEPTOR / Fold change vs veh, DEPTOR / RFU, CPM / Fold change vs veh, CPM / RFU, DNAJB6 / Fold change vs veh, DNAJB6 / RFU, CACNA2D3 / Fold change vs veh, CACNA2D3 / RFU, DTX4 / Fold change vs veh, DTX4 / RFU, TFCP2 / Fold change vs veh, TFCP2 / RFU, GMCL1 /// GMCL1P1 / Fold change vs veh, GMCL1 /// GMCL1P1 / RFU, AEBP2 / Fold change vs veh, AEBP2 / RFU, SNHG1 /// SNORD22 /// SNORD25 /// SNORD26 /// SNORD27 /// SNORD28 /// SNORD29 /// SNORD31 / Fold change vs veh, SNHG1 /// SNORD22 /// SNORD25 /// SNORD26 /// SNORD27 /// SNORD28 /// SNORD29 /// SNORD31 / Fold change (Aza/veh), C12orf56 (ProbeSet 11735607_a_at) / Fold change (ACY-1035/veh), C12orf56 (ProbeSet 11735607_a_at) / Fold change (Aza/veh), FGFR1OP (ProbeSet 11751329_s_at) / Fold change (ACY-1035/veh), FGFR1OP (ProbeSet 11751329_s_at) / Fold change (Aza/veh), VPS36 (ProbeSet 11739960_a_at) / Fold change (ACY-1035/veh), VPS36 (ProbeSet 11739960_a_at) / RFU SYPL1 (11715823_x_at) / Fold change /veh SYPL1 (11715823_x_at) / RFU IGFBP7 (11715501_s_at) / Fold change /veh IGFBP7 (11715501_s_at) / RFU REEP3 (11722064_at) / Fold change /veh REEP3 (11722064_at) / RFU IGLL1 (11728026_x_at) / Fold change /veh IGLL1 (11728026_x_at): dose or concentration left out as unconfirmed
Details: MV-4-11 cells, 48 hours

Nc1ncn([C@@H]2O[C@H](CO)[C@@H](O)[C@H]2O)c(=O)n1 [azacitidine]
Fold change /veh C5orf56 (11738089_at): 1.15
